The structures appear in SMILES notation.

What all share (set-up): key: S, oseltamivir sensitive; R, oseltamivir resistant
One test has as its system NA of A/Udorn/72. The format is biochemical, influenza H3N2 A/Udorn/72.
The subject of test [1] is NA of A/Vietnam/HN/30408/05. The format is biochemical, influenza H5N1 A/Vietnam/HN/30408/05.
The next test concerns the target NA of A/Vietnam/1203/04 (Influenza A virus, UniProt Q6DPL2). The class given is biochemical, influenza H5N1 A/Vietnam/1203/04.
In test [2] the test system is NA of A/duck/Hong Kong/380.5/01. The format is biochemical, influenza H5N1 A/duck/Hong Kong/380.5/01.
For test [3], the system named is NA of A/Egypt-2/14724/NAMRU3/06. The class given is biochemical, influenza H5N1 A/Egypt-2/14724/NAMRU3/06.
The next test relates to NA of A/Indonesia/05. The format is biochemical, influenza H5N1 A/Indonesia/05.
For test [4], the system named is NA of A/New Caledonia/20/99. The format is biochemical, influenza H1N1 A/New Caledonia/20/99.
Test [5] has as its system NA of A/Egypt/14725/NAMRU3/06. The format is biochemical, influenza H5N1 A/Egypt/14725/NAMRU3/06.
In a further test the test system is NA of A/Hong Kong/156/97. The format is biochemical, influenza H5N1 A/Hong Kong/156/97.

Sequence of NA of A/Vietnam/1203/04 (Q6DPL2 whole entry, looked up): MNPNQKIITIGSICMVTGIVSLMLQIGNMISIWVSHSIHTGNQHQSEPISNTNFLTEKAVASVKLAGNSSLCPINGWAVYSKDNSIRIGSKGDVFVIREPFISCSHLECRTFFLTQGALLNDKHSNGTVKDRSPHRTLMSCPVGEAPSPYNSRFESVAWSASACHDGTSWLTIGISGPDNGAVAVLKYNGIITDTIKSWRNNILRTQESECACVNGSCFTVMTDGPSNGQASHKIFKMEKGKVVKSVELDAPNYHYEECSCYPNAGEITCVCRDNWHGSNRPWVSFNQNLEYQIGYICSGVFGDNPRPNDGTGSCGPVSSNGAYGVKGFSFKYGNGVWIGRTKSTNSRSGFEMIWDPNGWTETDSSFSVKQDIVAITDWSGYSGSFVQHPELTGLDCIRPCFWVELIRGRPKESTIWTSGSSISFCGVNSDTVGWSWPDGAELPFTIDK

Take `CCOC(=O)C1=C[C@@H](OC(CC)CC)[C@H](NC(C)=O)[C@@H](N)C1` [Oseltamivir]: the “Oseltamivir sensitivity of the virus” value in the test on NA of A/Udorn/72 is listed as “S^§”; in test [1], “R”; at NA of A/Vietnam/1203/04, “S”; in test [2], “R”; in test [3] it was “R”; with NA of A/Indonesia/05, “S”. For the same compound, the figures for the “Oseltamivir sensitivity of the virus” value (in test [4]; in test [5]; in the test with NA of A/Hong Kong/156/97) were “S”, “R” and “S”, respectively.
